Source: patent US20240270821A1, “GIP/GLP1/GCG TRI-RECEPTOR AGONISTS AND USES THEREOF” (priority 2023, published 2024)
Where two headings read alike, the source gives them in different places. Marks after values point to notes of the source that are not given here. Starred links: 1 amine or outer side, 2 acyl side, 3 side chain; linkers in the order of their positions; H or OH if unused. Non-standard residues stand in square brackets, D forms with d. Groups on a side chain read outwards from the residue. No end group written: not given here. *: point of attachment. C20 diacid = O=C(O)CCCCCCCCCCCCCCCCCCC(=O)*; C18 diacid = O=C(O)CCCCCCCCCCCCCCCCC(=O)*; γGlu = O=C(O)[C@H](CCC(=O)[*:2])N[*:1]; 4Pal = N[C@@H](Cc1ccncc1)C(=O)O; αMeL = CC(C)C[C@](C)(N)C(=O)O; Orn = NCCC[C@H](N)C(=O)O; Dap = NC[C@H](N)C(=O)O; AEEA = NCCOCCOCC(=O)O; Aib = CC(C)(N)C(=O)O

Tests used:
[1] = target: T1, hGIPR (Homo sapiens, UniProt P48546); assay: Functional cAMP activity in the presence of 1% HSA; assay type: cell-based
T1 sequence (P48546 22-466): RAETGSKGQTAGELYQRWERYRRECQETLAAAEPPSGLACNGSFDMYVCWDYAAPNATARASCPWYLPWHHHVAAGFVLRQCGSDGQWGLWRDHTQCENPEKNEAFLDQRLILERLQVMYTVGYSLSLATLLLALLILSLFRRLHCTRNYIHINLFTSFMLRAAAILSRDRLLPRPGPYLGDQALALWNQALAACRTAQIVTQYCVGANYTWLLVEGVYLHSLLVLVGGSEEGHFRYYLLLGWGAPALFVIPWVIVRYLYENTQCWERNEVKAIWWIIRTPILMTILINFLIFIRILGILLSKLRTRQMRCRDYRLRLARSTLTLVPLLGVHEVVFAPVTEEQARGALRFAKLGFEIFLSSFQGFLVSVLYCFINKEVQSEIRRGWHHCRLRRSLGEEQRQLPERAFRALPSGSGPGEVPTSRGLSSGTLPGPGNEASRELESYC

[2] = Body weight in diet-induced obese C57BL/6 mice; assay type: in vivo; details: 10 nmol/kg SC Q3D, 14 days, percent of starting weight, DIO mice, mean ± SEM n=5
Procedure: To investigate the effect of the polypeptides as described herein on weight loss, exemplary polypeptides are dosed to C57BL/6 diet-induced obese (DIO) mice. Specifically, DIO male C57BL/6 mice (Taconic, Germantown, NY) maintained on a calorie-rich diet are used in the following studies. Mice are individually housed in a temperature-controlled (24° C.) facility with 12-hour light/dark cycle (lights on 22:00) and free access to food (TD95217) and water. After a minimum of 2 weeks acclimation to the facility, the mice are randomized according to their body weight, so each experimental group of animals would have similar starting body weight. The body weights range from 41 to 50 g. All groups contain 5 mice. […] Treatments are administered by subcutaneous (SC) injection (10 mL/kg) to ad libitum fed DIO mice 30 to 90 minutes prior to the onset of the dark cycle either once daily (QD) or once every 3 days (Q3D) for 9-16 days. Body weight and food intake are measured daily throughout the study. Body weight is presented as percent of the starting weight. […] Data are presented as mean±SEM of 5 animals per group in Table 7 below. Statistical analysis is performed using repeated measures ANOVA, followed by Dunnett's method comparison test.

[3] = target: T1, hGIPR; assay: Functional cAMP activation in the presence of 0.1% casein (no HSA); assay type: cell-based;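 as to Relative cAMP EC50, hGIPR: intracellular cAMP rise after 30 min at 37 °C read by HTRF against a standard curve, scaled between buffer alone (0%) and top control ligand concentration (100%), four-parameter fit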;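 as to Relative cAMP EC50, hGLP-1R: intracellular cAMP rise after 30 min at 37 °C read by HTRF, normalized between buffer only (0%) and maximal control ligand (100%), four-parameter variable-slope fit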;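 as to Relative cAMP EC50, hGcgR: intracellular cAMP rise after 30 min at 37 °C, read by HTRF against a cAMP standard curve, scaled from buffer only (0%) to maximal control ligand response (100%)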
[4] = target: hGcgR (Homo sapiens, UniProt P47871); assay: as above; assay type: cell-based;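 also: intracellular cAMP rise after 30 min at 37 °C, read by HTRF against a cAMP standard curve, scaled from buffer only (0%) to maximal control ligand response (100%)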
[5] = target: T2, hGLP-1R (Homo sapiens, UniProt P43220); assay: Functional cAMP activity in the presence of 1% HSA; assay type: cell-based
[6] = target: T2, hGLP-1R; assay: Functional cAMP activation in the presence of 0.1% casein (no HSA); assay type: cell-based;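 as to Relative cAMP EC50, hGIPR: intracellular cAMP rise after 30 min at 37 °C read by HTRF against a standard curve, scaled between buffer alone (0%) and top control ligand concentration (100%), four-parameter fit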;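 as to Relative cAMP EC50, hGLP-1R: intracellular cAMP rise after 30 min at 37 °C read by HTRF, normalized between buffer only (0%) and maximal control ligand (100%), four-parameter variable-slope fit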;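 as to Relative cAMP EC50, hGcgR: intracellular cAMP rise after 30 min at 37 °C, read by HTRF against a cAMP standard curve, scaled from buffer only (0%) to maximal control ligand response (100%)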
[7] = target: human GcgR (Homo sapiens, UniProt P47871); assay: Functional cAMP activity in the presence of 1% HSA; assay type: cell-based
[8] = target: human GLP1-R (Homo sapiens, UniProt P43220); assay: GLP1-R internalization assay in HEK293 cells; assay type: cell-based; details: for Internalization % TOP: normalized to maximum concentration of GLP-1 (100%)
[9] = test system: Intestinal organoid from Göttingen minipig jejunum tissue, 2D monolayer; assay: Cell based in vitro permeability (Papp) assay; assay type: in vitro ADME
In short: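 Papp calculated from LC/MS peptide levels in apical and basal compartments. Basal sampling at 20 min with C10 present, across monolayers grown from dissociated minipig jejunal organoids in transwells.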

[10] = in the presence of 0.1% casein (no HSA), geometric mean, read-out: Relative cAMP EC50, hGIPR
[11] = in the presence of 0.1% casein (no HSA), geometric mean, read-out: Relative cAMP EC50, hGcgR
[12] = read-out: cAMP Rel EC50, hGLP-1R
[13] = in the presence of 0.1% casein (no HSA), geometric mean, read-out: Relative cAMP EC50, hGLP-1R
[14] = HEK293 cells expressing SNAP-GLP-1R, read-out: GLP1R Internalization EC50

T2 sequence (P43220 24-463): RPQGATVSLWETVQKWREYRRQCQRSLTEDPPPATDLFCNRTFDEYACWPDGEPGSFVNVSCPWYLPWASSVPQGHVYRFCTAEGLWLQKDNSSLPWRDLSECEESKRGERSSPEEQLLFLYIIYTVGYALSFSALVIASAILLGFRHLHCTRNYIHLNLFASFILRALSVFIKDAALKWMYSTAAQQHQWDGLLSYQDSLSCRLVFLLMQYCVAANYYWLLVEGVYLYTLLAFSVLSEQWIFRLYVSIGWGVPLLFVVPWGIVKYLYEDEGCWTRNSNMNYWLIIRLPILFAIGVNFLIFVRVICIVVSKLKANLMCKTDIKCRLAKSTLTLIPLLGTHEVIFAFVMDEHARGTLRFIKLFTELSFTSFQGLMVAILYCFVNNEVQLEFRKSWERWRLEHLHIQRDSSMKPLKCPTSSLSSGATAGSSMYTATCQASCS
Chain of human GLP1-R (P43220 24-463): as above
Chain of human GcgR (P47871 26-477): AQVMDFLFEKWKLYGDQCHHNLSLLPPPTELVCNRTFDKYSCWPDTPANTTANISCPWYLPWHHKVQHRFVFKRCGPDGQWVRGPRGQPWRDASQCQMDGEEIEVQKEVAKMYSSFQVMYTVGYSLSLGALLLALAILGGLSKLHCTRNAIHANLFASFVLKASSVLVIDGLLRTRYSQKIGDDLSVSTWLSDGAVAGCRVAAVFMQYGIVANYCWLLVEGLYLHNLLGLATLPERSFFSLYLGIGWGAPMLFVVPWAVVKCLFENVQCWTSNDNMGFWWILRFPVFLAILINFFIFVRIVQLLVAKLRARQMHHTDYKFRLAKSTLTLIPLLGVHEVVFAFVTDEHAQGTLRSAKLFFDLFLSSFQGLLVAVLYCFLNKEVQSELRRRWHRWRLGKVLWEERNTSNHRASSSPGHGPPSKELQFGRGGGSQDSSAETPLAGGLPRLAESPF
Chain of hGcgR (P47871 26-477): as above

Compound | EC50 ([1]; read-out: cAMP Rel EC50, hGIPR) [nM] | Body weight (%) [2] | EC50 [3, 10] [nM] | EC50 [4, 11] [nM] | EC50 [5, 12] [nM] | EC50 [6, 13] [nM] | EC50 ([7]; read-out: cAMP Rel EC50, hGcgR) [nM] | EC50 [8, 14] [nM] | Internalization % TOP [8] [%] | EC50 [1] [nM] | EC50 [3] [nM] | EC50 [4] [nM] | EC50 [5] [nM] | EC50 [6] [nM] | EC50 [7] [nM] | EC50 [8] [nM] | Relative Papp (Compared to internal standard) [9]
CC[C@H](C)[C@H](NC(=O)[C@H](Cc1ccccc1)NC(=O)[C@H](C)NC(=O)C(C)(C)NC(=O)[C@H](CCC(N)=O)NC(=O)[C@H](C)NC(=O)[C@H](CCCCNC(=O)COCCOCCNC(=O)CC[C@H](NC(=O)CCCCCCCCCCCCCCCCCCC(=O)O)C(=O)O)NC(=O)[C@H](CCCCN)NC(=O)[C@H](CC(=O)O)NC(=O)[C@H](CC(C)C)NC(=O)[C@](C)(CC(C)C)NC(=O)[C@H](CCCN)NC(=O)[C@H](CO)NC(=O)[C@H](Cc1ccccc1)NC(=O)[C@H](CC(=O)O)NC(=O)[C@H](CO)NC(=O)[C@@H](NC(=O)[C@H](Cc1ccccc1)NC(=O)[C@@H](NC(=O)CNC(=O)[C@H](CCC(N)=O)NC(=O)C(C)(C)NC(=O)[C@@H](N)Cc1ccc(O)cc1)[C@@H](C)O)[C@@H](C)O)C(=O)N[C@@H](CCC(=O)O)C(=O)N[C@@H](Cc1ccc(O)cc1)C(=O)N[C@@H](CC(C)C)C(=O)N[C@@H](CC(C)C)C(=O)N[C@@H](C)C(=O)NCC(=O)NCC(=O)N1CCC[C@H]1C(=O)N[C@@H](CO)C(=O)N[C@@H](CO)C(=O)NCC(=O)N[C@@H](CCC(=O)O)C(=O)N1CCC[C@H]1C(=O)N1CCC[C@H]1C(=O)N1CCC[C@H]1C(=O)N[C@@H](CO)C(=O)N[C@@H](CCC(=O)O)C(=O)NCC(N)=O [Example 29] | 70.1 | 75.96 +/− 3.77**** % | 0.35 | 11.1 | 493 | 3.56 | 1350 | 129 | 57 |  |  |  |  |  |  |  | 
H-Y[Aib]QGTFTSDFSK[αMeL]LDKK([AEEA-γGlu-C18 diacid])AQ[Aib]AFIEYLLAGGPSSGEPPPSGE-NH2 [Example 23] | 25.5 | 80.86 +/− 1.25**** % | 0.178 | 5.13 | 308 | 2.98 | 573 | 51.5 | 67.2 |  |  |  |  |  |  |  | 
H-Y[Aib]QGTFTSDFSK[αMeL]LDKK([AEEA-γGlu-C20 diacid])AQQAFIEYLLA[Aib]GPSSGAPPPSEG-NH2 [Example 30] |  | 90.12 +/− 0.30** % |  |  |  |  |  |  | 72.8 | 72.9 | 0.247 | 5.22 | 806 | 3.18 | 969 | 70.4 | 
H-Y[Aib]QGTFTSDFSK[αMeL]LDKK([AEEA-γGlu-C20 diacid])AQ[Aib]AFIEWLLAGGPSSGEPPPSGE-NH2 [Example 21] | 29.1 | 83.70 +/− 0.86**** % | 0.218 | 12.4 | 324 | 2.7 | 1510 | 87.6 | 72.5 |  |  |  |  |  |  |  | 
H-Y[Aib]QGTFTSDFS[Dap][αMeL]LDKK([AEEA-γGlu-C18 diacid])AQ[Aib]AFIEYLLE[Aib]GPSSGAPPPSGS-NH2 [Example 134] | 38.3 | 93.28 +/− 1.38% | 0.152 | 7.28 | 549 | 3.36 | 1200 | 67.9 | 22.3 |  |  |  |  |  |  |  | 0.07
H-Y[Aib]QGTFTSDFS[Orn][αMeL]LDKK([AEEA-AEEA-γGlu-C18 diacid])AQ[Aib]AFIEYLLE[Aib]GPSSGAPPPSGS-NH2 [Example 75] | 16.8 | 96.28 +/− 1.51% | 0.0578 | 4.51 | 878 | 4.4 | 1040 | 61.8 | 51.9 |  |  |  |  |  |  |  | 
H-Y[Aib]QGTFTSDFS[Orn][αMeL]LDKK([AEEA-γGlu-C18 diacid])AQ[Aib]AFIEWLLEGGESSGAPPPEGS-NH2 [Example 125] | 67.8 | 97.90 +/− 0.32% | 0.503 | 3.97 | 1050 | 4.12 | 901 | 86.4 | 42.6 |  |  |  |  |  |  |  | 
H-Y[Aib]QGTFTSDFS[Orn][αMeL]LDKK([AEEA-γGlu-C18 diacid])AQ[Aib]AFIEWLLEGGHSSGAPPPEGS-NH2 [Example 126] | 40.3 | 95.68 +/− 0.90% | 0.264 | 6.81 | 838 | 3.97 | 1120 | 63.2 | 38.8 |  |  |  |  |  |  |  | 
H-Y[Aib]QGTFTSDFS[Orn][αMeL]LDKK([AEEA-γGlu-C18 diacid])AQ[Aib]AFIEYLLAGGPSSGAPPPEGS-NH2 [Example 93] | 27.9 | 86.64 +/− 1.94**** % | 0.162 | 7.16 | 397 | 2.63 | 1390 | 30.4 | 50.8 |  |  |  |  |  |  |  | 
H-Y[Aib]QGTFTSDYSI[αMeL]LDKQAAK([AEEA-AEEA-γGlu-C20 diacid])QFVEWLIA[Aib]GPSSGEPPPAEG-NH2 [Example 334] | 72.1 | 84.78 +/− 2.74**** % | 0.223 | 6.77 | 171 | 0.707 | 2070 | 28.3 | 96.8 |  |  |  |  |  |  |  | 
H-Y[Aib]QGTFTSD[4Pal]SR[αMeL]LDKK([AEEA-γGlu-C18 diacid])AQ[Aib]AFIEYLLE[Aib]GESSGAPPPSGS-NH2 [Example 132] | 25.9 | 98.66 +/− 0.47% | 0.21 | 2.63 | 823 | 5.72 | 632 | 72.7 | 67.2 |  |  |  |  |  |  |  | 
Y[Aib]QGTFTSDFS[Orn][αMeL]LDKK([AEEA-γGlu-C18 diacid])AQ[Aib]AFIEYLLAGGPSSGEPPPEGE-NH2 [Example 98] | 33.8 | 90.78 +/− 1.26* % | 0.179 | 6.91 | 660 | 4.35 | 867 | 56 | 49.3 |  |  |  |  |  |  |  | 
